# Square brackets hold non-standard residues; d marks the D form. Peptide text beside a SMILES is read from it. * marks the point of attachment. Agmatine = N=C(N)NCCCCN*; Cbz = O=C(OCc1ccccc1)*; azaGly = NNC(=O)O; BrAc = O=C(CBr)*; ClAc = O=C(CCl)*
# T1: Papain (Carica papaya, UniProt P00784)
# T1 sequence (P00784 134-345): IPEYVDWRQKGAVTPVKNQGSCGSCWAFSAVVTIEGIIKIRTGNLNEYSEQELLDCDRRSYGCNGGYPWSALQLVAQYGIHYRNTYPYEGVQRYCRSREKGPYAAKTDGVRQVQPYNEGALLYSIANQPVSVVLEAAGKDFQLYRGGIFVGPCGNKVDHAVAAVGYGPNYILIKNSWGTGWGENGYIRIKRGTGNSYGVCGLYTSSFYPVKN
# T2: Cath K (Homo sapiens, UniProt P43235)
# T2 sequence (P43235 115-329): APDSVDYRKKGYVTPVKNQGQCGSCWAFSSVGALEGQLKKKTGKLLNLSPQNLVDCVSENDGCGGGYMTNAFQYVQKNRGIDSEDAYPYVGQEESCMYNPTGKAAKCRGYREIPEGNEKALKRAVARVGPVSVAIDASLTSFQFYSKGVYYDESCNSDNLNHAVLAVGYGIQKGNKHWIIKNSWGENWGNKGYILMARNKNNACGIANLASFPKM
# B1: PTH (protein, UniProt P01270 32-115, looked up)
# Parathyroid hormone: SVSEIQLMHNLGKHLNSMERVEWLRKKLQDVHNFVALGAPLAPRDAGSQRPRKKEDNVLVESHEKSLGEADKADVNVLTKAKSQ
# modifications: Parathyroid hormone
# notes: PTH, used to show the lack of stromal cells in the cultures
# B2: osteoprotegerin (protein, UniProt O00300 22-401, looked up)
# Tumor necrosis factor …: ETFPPKYLHYDEETSHQLLCDKCPPGTYLKQHCTAKWKTVCAPCPDHYYTDSWHTSDECLYCSPVCKELQYVKQECNRTHNRVCECKEGRYLEIEFCLKHRSCPPGFGVVQAGTPERNTVCKRCPDGFFSNETSSKAPCRKHTNCSVFGLLLTQKGNATHDNICSGNSESTQKCGIDVTLCEEAFFRFAVPTKFTPNWLSVLVDNLPGTKVNAESVERIKRQHSSQEQTFQLLKLWKHQNKDQDIVKKIIQDIDLCENSVQRHIGHANLTFEQLRSLMESLPGKKVGAEDIEKTIKACKPSDQILKLLSLWRIKNGDQDTLKGLMHALKHSKTYHFPKTVTQSLKKTIRFLHSFTMYKLYQKLFLEMIGNQVQSVKISCL
# notes: osteoprotegerin (OPG), abolishes M-CSF/RANKL-stimulated osteoclast formation
# B3: Cystatin C (protein, UniProt P01034 27-146, looked up)
# Cystatin-C: SSPGKPPRLVGGPMDASVEEEGVRRALDFAVGEYNKASNDMYHSRALQVVRARKQIVAGVNYFLDVELGRTTCTKTQPNLDNCPFHDQPHLKRKAFCSFQIYAVPWQGTMTLSKSTCQDA
# Assays:
# [1] = tested on: purified bone marrow macrophages; test: Osteoclast formation in bone marrow macrophage cultures stimulated with M-CSF and RANKL (TRAP+ multinucleated osteoclasts); type: cell-based; conditions: for Osteoclast formation (100% = M-CSF + RANKL): purified bone marrow macrophages stimulated with M-CSF and RANKL, trap+ multinucleated osteoclasts
# Description: Highly purified BMMs were isolated according to Takeshita et al. (2000).
# For osteoclastogenesis experiments, BMMs were seeded either on 0.8 cm^2 glass chamber slides or 0.32 cm^2 96-well plates at a density of 10^4 cells/cm^2 in a-MEM/10% FBS containing either 100 ng/ml M-CSF (controls) or 100 ng/ml M-CSF C50 ng/ml RANKL, with and without test compounds. After 4-5 days, with a change of medium after 3 days, the cultures were harvested and the cells fixed with acetone in citrate buffer/3% formaldehyde and subsequently stained for TRAP. The TRAP-positive cells with three or more nuclei were considered osteoclasts, and the number of multinucleated osteoclasts was counted (TRAP^+-MuOCL). […] Osteoclast formation caused by M-CSF and RANKL was abolished by OPG
# Papain = biological target: T1, Papain; test: Papain inhibition (Ki); type: biochemical
# Cath B = Cath B (Homo sapiens, UniProt P07858); test: Cathepsin B inhibition (Ki); type: biochemical
# Cath K = biological target: T2, Cath K; test: Cathepsin K inhibition (Ki); type: biochemical
# spleen cells = test: Osteoclast formation in spleen cell cultures (TRAP+ multinucleated osteoclasts); type: cell-based, mice; conditions: for Osteoclast formation in the presence of the substance: without M-CSF/RANKL stimulation
# Description: Cells were obtained from spleens of 5- to 9-week-old mice. The spleens were dissected free of adhering tissues, and cells were released by rubbing the spleens against the bottom of a Petri dish, in which grooves had been made by a scalpel. Erythrocytes were lysed in red blood cell lysis buffer (0.16 MNH4Cl, 0.17 M Tris, pH7.65) and the remaining cells were seeded, at a cell density of 10^6 cells/cm2, on plastic coverslips placed in 24-well plates. The cells were cultured in 0.5 ml a-minimal essential medium (a-MEM) supplemented with 10% fetal bovine serum (FBS), L-glutamine (0.7 mM), 100 U/ml benzylpenicillin, […] and 100 […] sulphate. Cells were allowed to settle overnight in complete medium and thereafter the medium was changed and the experiment started. Osteoclast precursor cells were induced to proliferate and differentiate by the addition of M-CSF (25 ng/ml) and RANKL (100 ng/ml). To study the effect of the compounds on osteoclastogenesis, cells were grown in medium containing compounds at different concentrations, together with M-CSF and RANKL. Cells cultured in complete medium without M-CSF and RANKL were included in all experiments as a control. Medium was changed after 3 days. After 1-6 days, the cells were washed three times with PBS (pH 7.35) and fixed with acetone in citrate buffer/3% formaldehyde solution. Cells were then stained for tartrate-resistant acid phosphatase (TRAP) activity using the SigmaDiagnostics Acid Phosphatase Leukocyte staining kit and by following the manufacturer's instruction. Multinucleated (no. of nuclei >3), TRAP-positive cells were counted as osteoclasts (TRAPC-MuOCL).
Molecule,Osteoclast formation (100% = M-CSF + RANKL) ([1]; BMM #27 + #29 + #30 + #34) [%],Ki (Papain) [nM],Ki (Cath B) [nM],Ki (Cath K) [nM],other results
"CC(C)CC(NC(=O)C(NC(=O)C1OC1C(=O)c1ccccc1)C(C)C)C(=O)NCCCCNC(=N)N (single isomer, unassigned) [A-47]",0,16,0.3,99,–
"CC(C)CC(NC(=O)C(NC(=O)C1OC1C(=O)c1ccccc1)C(C)C)C(=O)NCCCCNC(=N)N (single isomer, unassigned) [A-50]",2,68,55,63,–
"CC(C)CC(NC(=O)C(NC(=O)CCl)C(C)C)C(=O)NCCCCNC(=N)N (stereo not drawn) [A-11, ClAc—Val-Leu-Agm] (ClAc-Val-Leu-Agmatine; configuration not given here)",1,93,360,14,–
"CC(C)CC(NC(=O)C(NC(=O)CBr)C(C)C)C(=O)NCCCCNC(=N)N (stereo not drawn) [A-12, BrAc—Val-Leu-Agm] (BrAc-Val-Leu-Agmatine; configuration not given here)",2,94,1000,13,–
"CC(C)C[C@H](NC(=O)[C@@H](NC(=O)[C@H](Br)Cc1ccccc1)C(C)C)C(=O)NCCCCNC(=N)N [A-16, BrPpr-Val-Leu-Agm]",16,340,–,–,Cath B Ki (Cath B): inactive; Cath K Ki (Cath K): inactive
"CC(C)CC(NC(=O)C(CCCNC(=N)N)NC(=O)OCc1ccccc1)C(=O)NC(CNC(=O)/C=C/c1ccccc1)C(C)C (stereo not drawn) [A-20, Z-Arg-Leu-NH—CH(iPr)—CH2—NH←Cin]",0,–,–,–,Papain Ki (Papain): Inactive
"CC(C)CC(NC(=O)C(NC(=O)/C=C/S(=O)(=O)Cc1ccccc1)C(C)C)C(=O)NCCCCNC(=N)N (stereo not drawn) [A-25, Bzsa-Val-Leu-Agm]",1,–,8.1,42.2,Papain Ki (Papain): Inactive
"CC(C)CC(NC(=O)C(NC(=O)/C=C/C(=O)c1ccccc1)C(C)C)C(=O)NCCCCNC(=N)N (stereo not drawn) [A-33, Bzac-Val-Leu-Agm]",0,46,2,24,–
"COC(=O)C1OC1C(=O)NC(C(=O)NC(CC(C)C)C(=O)NCCCCNC(=N)N)C(C)C (stereo not drawn) [A-42, MeO-Eps-Val-Leu-Agm]",0,161,14,–,Cath K Ki (Cath K): inactive
"CC(C)CC(NC(=O)C(CCCNC(=N)N)NC(=O)OCc1ccccc1)C(=O)NC(CNC(=O)/C=C/c1ccncc1)C(C)C (stereo not drawn) [A-49, Z-Arg-Leu-NH—CH(iPr)—CH2—NH←4-Pac]",0.2,–,–,–,–
CC(C)CC(NC(=O)CCCCNC(=N)N)C(=O)NC(CNC(=O)/C=C/S(=O)(=O)Cc1ccccc1)C(C)C (stereo not drawn) [A-54],1,1000,228,14,–
"CC(C)CC(NC(=O)C(CCCNC(=N)N)NC(=O)OCc1ccccc1)C(=O)NC(C(=O)NC(Cc1ccccc1)C(N)=O)C(C)C (stereo not drawn) [A-59, Ppa-Arg-Leu-Val-Phe-NH2] (Cbz-RLVF-NH2; configuration not given here)",0,–,–,–,–
"CC(C)CC(NC(=O)CCCCNC(=N)N)C(=O)NC(CNC(=O)C(Cc1ccccc1)NC(=O)Cc1cc(=O)oc2cc(O)ccc12)C(C)C [A-107, (2S)-2-[N-(5-guanidinepentanoyl)-L-leucylamino]-1-[N-(7-hydroxy-4-coumarinylacetyl-L-phenylalanylamino)-3-methylbutane]",–,–,–,–,Osteoclast formation (100% = M-CSF + RANKL) ([1]; BMM #141 and #142): 0%
"CC(C)CC(NC(=O)/C=C/c1cccnc1)C(=O)NC(CC(C)C)C(=O)NCCCCNC(=N)N (stereo not drawn) [A-127, 3 Pac-DLeu-Leu-Agm]",–,–,–,–,Osteoclast formation (100% = M-CSF + RANKL) ([1]; BMM #141 and #142): 16%
"CC(C)CC(NC(=O)Cc1cc(=O)oc2cc(O)ccc12)C(=O)NC(CC(C)C)C(=O)NCCCCNC(=N)N [A-128, N-amidino-4-(7-hydroxy-4-coumarinacetyl-D-leucyl-L-leucylamino)butylamine]",–,–,–,–,Osteoclast formation (100% = M-CSF + RANKL) ([1]; BMM #141 and #142): 4%
"C=C1/C(=C\C=C2/CCC[C@]3(C)[C@@H]([C@H](C)CCCC(C)(C)O)CC[C@@H]23)C[C@@H](O)C[C@@H]1O [D3, 1.25(OH)2-vitamin D3, reference compound]",–,–,–,–,Osteoclast formation in the presence of the substance (spleen cells): No osteoclasts were formed; Osteoclast formation in the presence of the substance ([1]; BMM cultures): Osteoclasts were not formed
"CCC(C)C(NC(=O)/C=C/S(=O)(=O)Cc1ccccc1)C(=O)N1CCCC1C(=O)O (stereo not drawn) [M-1, Bzsa-Ile-Pro-OH]",14,23,3,160,–
"CCC(C)C(NC(=O)NNC(=O)C(CCCNC(=N)N)NC(=O)C(CC(C)C)NC(=O)C(CCCNC(=N)N)NC(=O)OCc1ccccc1)C(=O)NC(C(=O)OC)C(C)C (stereo not drawn) [Z-RLR, Z-Arg-Leu-Arg-Agly-Ile-Val-OMe] (Cbz-RLR[azaGly]IV-OMe; configuration not given here)",0,9,–,1,–
B1,–,–,–,–,Osteoclast formation in the presence of the substance (spleen cells): No osteoclasts were formed; Osteoclast formation in the presence of the substance ([1]; BMM cultures): Osteoclasts were not formed
B2,–,–,–,–,"Effect on stimulation of osteoclast formation caused by M-CSF and RANKL (spleen cells; M-CSF and RANKL): abolished; Effect on osteoclast formation caused by M-CSF and RANKL ([1]; BMM cultures, M-CSF and RANKL): abolished"
B3,–,–,–,–,Osteoclast formation (100% = M-CSF + RANKL) ([1]; BMM #141 and #142): 0%

# Reference: patent US8748370B2, “Peptide derivatives for treatment, prevention or alleviation of a condition associated with bone loss or low bone density or to inhibit osteoclast differentiation and stimulation” (Strongbone AB, priority 2009, dated 2014)
